Source: patent US5328913A, “Minoxidil analogs as inhibitors of cell proliferation and lysyl hydroxylase” (priority 1992, dated 1994)
“Also recorded” adds a separate entry of the source.

Experiments:
[1] = tested on: enzyme activity (lysyl hydroxylase, prolyl hydroxylase); assay: Direct inhibition of enzyme activity, mixing experiments with extracts of treated cells and controls; format: biochemical, human
Description: The functional significance of the nitroxide oxygen in minoxidil was evaluated with a deoxy analog. Shown in FIG. 2 is a comparison of the effects of minoxidil and deoxyminoxidil on the activities of lysyl hydroxylase and the control enzyme prolyl hydroxylase in cultured fibroblasts.

prolyl hydroxylase [2] = assay: Prolyl hydroxylase activity in extracts of treated human skin fibroblasts (Example 1, tritium-release assay); format: cell-based; settings: cultured fibroblasts
Description: (§1) Cultures of human skin fibroblasts grown to confluence were incubated for 72 h in medium supplemented with 1% ethanol containing various concentrations of minoxidil or deoxyminoxidil as indicated. Cells were then harvested, and the enzyme activities in extracts of these cells were measured by tritium-release assays (Murad and Pinnell, J. Biol. Chem. 262:11,973 (1987)). The results are expressed as percentages of zero-concentration values.
as §1, with “with 1% acetone containing various concentrations of minoxidil sulfate,” for “deoxyminoxidil”, “tritium release” for “tritium-release”
(§2) Skin fibroblast cultures derived from an apparently normal child (GM05659) were obtained from the Institute for Medical Research, Camden, N.J. The cells were subcultured by trypsinization and used before 25 population doublings. Typically, 4×10^5 cells were seeded onto 100-mm (diameter) plastic petri dishes and allowed to grow in 10 ml of Dulbecco's modified Eagle's minimum essential medium containing 5.6 mM glucose, buffered in pH 7.4 with 24 mM sodium biocarbonate/25 mM Hepes and supplemented with 20% (v/v) calf serum which had been inactivated for 30 min at 56° C. The cells were incubated at 37° C. in a humidified atmosphere of 5% CO2 plus 95% air.
(§3) After a week, the medium was replaced with medium supplemented with 0.5% heat-inactivated diaylzed calf serum, and the incubation was continued for 72 h in the presence of minoxidil or one of its structural analogs. The compounds were dissolved in 95% ethanol, except minoxidil sulfate which was dissolved in acetone; the final solvent concentration was 1% (v/v). During the last 3 h of incubation, cells received 100 μM Na L-ascorbate to ensure complete hydroxylation of the polypeptide precursors of precollagen (Murad et al, J. Invest. Dermatol. 75:404 (1980)).
The medium was then removed and the cells were washed twice with a solution containing 0.14 M NaCl, 5 mM KCl, 0.3 mM Na2 PO4, and 0.4 mM KH2 PO4, adjusted to pH 7.4. […] The trypsinization was terminated with 2 vol of 20% serum-supplemented medium, and the cell number in an aliquot of the suspension was determined using a Coulter counter. […]
(§4) The protein content of cell extracts was determined by a dye-binding technique using Bio-Rad reagent and protein standard (Bradford, Anal. Biochem. 72:248 (1976)).

lysyl hydroxylase [3] = assay: Lysyl hydroxylase activity in extracts of treated human skin fibroblasts (Example 1, tritium-release assay); format: cell-based; settings: cultured fibroblasts
Description: as §1
as §1, with “with 1% acetone containing various concentrations of minoxidil sulfate,” for “deoxyminoxidil”, “tritium release” for “tritium-release”
as §2, §3
The medium was then removed and the cells were washed twice with a solution containing 0.14 M NaCl, 5 mM KCl, 0.3 mM Na2 PO4, and 0.4 mM KH2 PO4, adjusted to pH 7.4. The cells were detached from the plates with a solution containing 0.05% trypsin, 0.54 mM EDTA, 5.5mM glucose, 6.90mM NaHCO3, […], and 5 mM KCl. The trypsinization was terminated with 2 vol of 20% serum-supplemented medium, and the cell number in an aliquot of the suspension was determined using a Coulter counter.
The detached cells were collected by centrifugation at 500g for 6 min at 4° C. washed twice by suspending in phosphate-buffered NaCl/KCl as above, and then centrifuged. The cell pellet was suspended in a medium (1 ml/5×10^6 cells) containing 0.2 M NaCl, 0.1 M glycine, 50 μM dithiothreitol, 20 mM Tris-HCl, buffer (pH 7.5), 0.1% Triton X-100, and 0.01% soybean trypsin inhibitor. The suspension was sonicated for 30 s using a Branson sonifier cell disrupter. The lysate was centrifuged at 27,000g for 1 h at 4° C., and the resulting supernatant was used for prolyl and lysyl hydroxylase assays (Murad and Pinnell, J. Biol. Chem. 262:11, 973 (1987)). The enzyme activities are based on a unit of soluble cell protein.
as §4
Note: Cultures of human skin fibroblasts grown to confluence were
incubated for 72 h in medium supplemented with 1% ethanol containing 1 mM
of the indicated compounds. Cells were then harvested, and the enzyme
activity in extracts of these cells was measured by a tritiumrelease
incubated for 72 h in medium supplemented with 1% ethanol containing 1 nM

human skin fibroblasts = assay: Fibroblast proliferation; format: cell-based; settings: relative to minoxidil
Description: Cultures were seeded at a density of 100,000 cells per 35 mm-dish and allowed to attach and proliferate in the presence of 20% calf serum. Drug-treated cultures received 1 mM minoxidil or its hydroxy derivative on day 1 after seeding.

[4] = tested on: Lysyl Hydroxylations in Human Skin Fibroblasts; assay: Hydroxylation of lysine residues in type I procollagen (Hyl/Lys); format: cell-based; settings: 1 mM; for Hyl/Lys: 72 hr; for activity at 1000 µM: Homo sapiens, Skin fibroblast, 72 hr (Table V), read-out: ratio of hydroxylysine to lysine, percentage of control value
Description: (§5) Culture of human skin fibroblasts derived from an apparently normal adult were grown to confluent densities in Dulbecco's modified Eagle's medium supplemented with 10% (v/v) fetal calf serum. Thereafter, the medium was replaced with medium supplemented with 0.5% dialyzed fetal calf serum. The cultures were treated for 72 hr with 1 mM minoxidil, 3'- hydroxyminoxidil,or 4'-hydroxyminoxidil (Upjohn) dissolved in aqueous medium. In some experiments, minoxodil was dissolved in 95% (v/v) ethanol; […]. Cultures treated with ethanol only served as the control.
(§6) During the last 6 hr of treatment, cultures were labeled with 50 μCi of L-[2,3-^3 H]proline (35 Ci/mmol) and 50 μCi of L[U-^14 C]lysine ([…]) in 4 ml of lysine-free medium supplemented with 100 μM ascorbic acid. At the end of the incubation period, the medium was removed and mixed with 1 mM each of EDTA, N-ethylmaleimide, and phenylmethylsulfonylfluoride, and the collagenous proteins were precipitated with 30% (NH4)2 SO4. The cell layer was scraped and extracted with 0.5 M acetic acid containing the protease inhibitors as above. The cell extract was neutralized, and the collagenous proteins were precipitated as above. The (NH4)2 SO4 precipitate from the medium and cell layer was separately dissolved in 0.1% SDS/10 mM Tris-HCl (pH 6.8), reduced with dithiothreitol, and analyzed by electrophoresis on 4% SDS-polyacrylamide gels. The bands corresponding to the proαl(I) and proα2(I) chains from the two fractions were pooled and hydrolyzed with 6 M HCl for 24 hr at 110° C. Proline, hydroxyproline, lysine, and hydroxylysine in the hydrolysate were separated by HPLC (Takimitsa et al, J. Dermatol. 16:37 (1989)), and their radioactivity was determined in a Beckman liquid scintillation counter. To isolate type I procollagen the precipitate from the medium and cell layer was separately dissolved in 25 mM Tris-HCl, pH 7.5, containing 2 M urea and 1 mM each of EDTA, N-ethylmaleimide, and phenylmethylsulfonylfluoride, then chromatographed on a DEAE-cellulose column (Freiberger et al, J. Invest. Dermatol. 75:425 (1980)). The procollagen isolated from the two fractions was pooled, hydrolyzed, and analyzed as above.

[5] = in vivo; cited from earlier work
[6] = tested on: Prolyl Hydroxylations in Human Skin Fibroblasts; assay: Hydroxylation of proline residues in type I procollagen (Hyp/Pro); format: cell-based; settings: 1 mM; for Hyp/Pro: 72 hr; for activity at 1000 µM: Homo sapiens, Skin fibroblast, 72 hr (Table V), read-out: ratio of hydroxyproline to proline, % control value
Description: as §5, with “The cultures were treated for 72 hr with 1 mM minoxidil, 3'- hydroxyminoxidil,or 4'-hydroxyminoxidil (Upjohn) dissolved in aqueous medium.” left out
as §6

prolyl hydroxylase [7] = assay: Prolyl hydroxylase activity in fibroblasts treated with minoxidil and its hydroxy derivatives (Example 3); format: cell-based, human; settings: for prolyl hydroxylase activity (in words) / Prolyl Hydroxylase Activity: 1 mM; for prolyl hydroxylase activity (in words): 72 hr
Description: (§7) Culture of human skin fibroblasts derived from an apparently normal adult were grown to confluent densities in Dulbecco's modified Eagle's medium supplemented with 10% (v/v) fetal calf serum. Thereafter, the medium was replaced with medium supplemented with 0.5% dialyzed fetal calf serum. The cultures were treated for 72 hr with 1 mM minoxidil, 3'- hydroxyminoxidil,or 4'-hydroxyminoxidil (Upjohn) dissolved in aqueous medium. In some experiments, minoxodil was dissolved in 95% (v/v) ethanol; the final concentration of minoxidil was 0.3 mM and that of ethanol was 0.3%. Cultures treated with ethanol only served as the control.
(§8) During the last 3 hr of treatment, cultures received 100 μM ascorbic acid. The enzyme activities in extracts of treated cells were measured by tritium-release assays described previously (Murad and Pinnell, J. Biol. Chem. 262:11,973 (1987)).

lysyl hydroxylase [8] = assay: Lysyl hydroxylase activity in fibroblasts treated with minoxidil and its hydroxy derivatives (Example 3); format: cell-based, human; settings: for Fibroblast Lysyl Hydroxylase Activity: 48 hr
Description: as §7, with “The cultures were treated for 72 hr with 1 mM minoxidil, 3'- hydroxyminoxidil,or 4'-hydroxyminoxidil (Upjohn) dissolved in aqueous medium.” left out
as §8

[9] = tested on: Collagen Synthesis in Human Skin Fibroblasts; assay: Collagen synthesis in human skin fibroblasts; format: cell-based; settings: 1 mM, 72 hr; mean ± SD of duplicate analysis of two cultures (Table VII)
Description: as §5
During the last 6 hr of treatment, cultures were labeled with 20 μCi of L-[2,3-^3 H]proline in 1 ml of medium supplemented with 100 μM ascorbic acid. The amount of proline radioactivity incorporated into collagen in the medium and cells combined was measured after digestion with a bacterial collagenase, essentially as described previously (Freiberger et al, J. Invest. Dermatol. 75:425 (1980)).

[10] = tested on: non-proliferating fibroblasts; assay: Cytotoxicity to non-proliferating fibroblasts (cell number per dish); format: cell-based; settings: 5 mM, 72 hr
Source text: Certain aspects of the present invention are described in greater detail in the non-limiting Examples that follow. (See also Murad et al, Arch. Biochem. Biophys. 292:234 (1992)).

[11] = type I procollagen chains isolated by gel electrophoresis, mean ± range of two experiments (description table)
[12] = 1 mM, 72 hr (description table)

SMILES: Nc1cc(N2CCCCC2)nc(N)n1 [Deoxyminoxidil]
- direct inhibition of enzyme activity (in words) [1]: no evidence for direct inhibition of enzyme activity
- IC50 (prolyl hydroxylase [2]; 72 h (FIG. 2), read-out: concentration required for 50% effect (prolyl hydroxylase)): 260 µM
- effect on prolyl hydroxylase activity (in words) (prolyl hydroxylase [2]; 72 h, Example 1): suppressed prolyl hydroxylase activity in a dose-related manner
- IC50 (lysyl hydroxylase [3]; 72 h (FIG. 2), read-out: concentration required for 50% inhibition (lysyl hydroxylase)): 118 µM
- effect on lysyl hydroxylase activity (in words) (lysyl hydroxylase [3]; 72 h, Example 1): suppressed lysyl hydroxylase activity in a manner remarkably similar to that observed with minoxidil

SMILES: Nc1cc(N2CCCC(O)C2)nc(N)[n+]1[O-] (centres unmarked) [3'-Hydroxyminoxidil]
- suppression of fibroblast proliferation (in words) (human skin fibroblasts): as active as minoxidil in suppressing fibroblast proliferation
- Hyl/Lys ([4]; gel electrophoresis (Table V)): 0.07 ± 0.01
- Hyl/Lys [4, 11]: 0.07 ± 0.01
- activity at 1000 µM [4]: 32%
- antihypertensive / hypotensive activity (in words) [5]: Neither metabolite exhibits the marked hypotensive activity associated with minoxidil; also recorded: inactive as antihypertensive agents
- Hyp/Pro ([6]; gel electrophoresis (Table V)): 0.95 ± 0.02
- Hyp/Pro [6, 11]: 0.95 ± 0.02
- activity at 1000 µM [6]: 103%
- effect on prolyl hydroxylase (in words) (prolyl hydroxylase [7]): without affecting prolyl hydroxylase
- prolyl hydroxylase activity (in words) (prolyl hydroxylase [7]): remained unchanged
- Prolyl Hydroxylase Activity (prolyl hydroxylase [7]; 72 hr (Table VI)): 30512 cpm ^3 H2 O/mg protein
- Prolyl Hydroxylase Activity (prolyl hydroxylase [7]; 72 hr (description table)): 30512 cpm^3 H2 O/mg protein
- suppression of lysyl hydroxylase (in words) (lysyl hydroxylase [8]): inhibitory potential comparable to that of minoxidil; also recorded: as active as minoxidil in suppressing fibroblast proliferation and lysyl hydroxylase activity
- Fibroblast Lysyl Hydroxylase Activity (lysyl hydroxylase [8]; 1 mM): 401 cpm^3 H2 O/mg protein
- Lysyl hydroxylase activity, % of control level (lysyl hydroxylase [8]; 1 mM, 72 hr): 22%
- Lysyl Hydroxylase Activity (lysyl hydroxylase [8]; 1 mM, 72 hr (Table VI)): 263 cpm ^3 H2 O/mg protein
- Lysyl Hydroxylase Activity (lysyl hydroxylase [8]; [12]): 263 cpm^3 H2 O/mg protein
- Fibroblast Lysyl Hydroxylase Activity (lysyl hydroxylase [8]; 5 mM): 383 cpm^3 H2 O/mg protein
- % Collagen Synthesized [9]: 9.0 ± 0.9%
- 10^-6 × No. of Cells/Dish [10]: 1.39 10^-6 × No. of Cells/Dish

SMILES: Nc1cc(N2CCC(O)CC2)nc(N)[n+]1[O-] [4'-Hydroxyminoxidil]
- suppression of fibroblast proliferation (in words) (human skin fibroblasts): as active as minoxidil in suppressing fibroblast proliferation
- Hyl/Lys ([4]; gel electrophoresis (Table V)): 0.09 ± 0.01
- Hyl/Lys [4, 11]: 0.09 ± 0.01
- activity at 1000 µM [4]: 41%
- antihypertensive / hypotensive activity (in words) [5]: Neither metabolite exhibits the marked hypotensive activity associated with minoxidil; also recorded: inactive as antihypertensive agents
- Hyp/Pro ([6]; gel electrophoresis (Table V)): 1.12 ± 0.07
- Hyp/Pro [6, 11]: 1.12 ± 0.07
- activity at 1000 µM [6]: 122%
- effect on prolyl hydroxylase (in words) (prolyl hydroxylase [7]): without affecting prolyl hydroxylase
- prolyl hydroxylase activity (in words) (prolyl hydroxylase [7]): remained unchanged
- Prolyl Hydroxylase Activity (prolyl hydroxylase [7]; 72 hr (Table VI)): 33500 cpm ^3 H2 O/mg protein
- Prolyl Hydroxylase Activity (prolyl hydroxylase [7]; 72 hr (description table)): 33500 cpm^3 H2 O/mg protein
- suppression of lysyl hydroxylase (in words) (lysyl hydroxylase [8]): inhibitory potential comparable to that of minoxidil; also recorded: as active as minoxidil in suppressing fibroblast proliferation and lysyl hydroxylase activity
- Fibroblast Lysyl Hydroxylase Activity (lysyl hydroxylase [8]; 1 mM): 415 cpm^3 H2 O/mg protein
- Lysyl Hydroxylase Activity (lysyl hydroxylase [8]; 1 mM, 72 hr (Table VI)): 239 cpm ^3 H2 O/mg protein
- Lysyl Hydroxylase Activity (lysyl hydroxylase [8]; [12]): 293 cpm^3 H2 O/mg protein
- Fibroblast Lysyl Hydroxylase Activity (lysyl hydroxylase [8]; 5 mM): 494 cpm^3 H2 O/mg protein
- % Collagen Synthesized [9]: 8.2 ± 0.6%
- 10^-6 × No. of Cells/Dish [10]: 1.42 10^-6 × No. of Cells/Dish
